This passage reports RP-LC retention time results from the METLIN SMRT retention time set (Domingo-Almenara et al. 2019).

The series can be described thus: gradient 5% acetonitrile 3 min, to 50% in 2 min, to 85% in 15 min, held 3 min, 100 µL/min. The note with it: column: Zorbax Extend-C18 2.1 x 50 mm; eluents: water / acetonitrile, 0.1% formic acid. An outline of the steps: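 Values are retention times taken from adduct peaks that software picked and an analyst inspected. The pure standards were run as mixtures of ~100 molecules on HPLC linked to a quadrupole time-of-flight mass spectrometer, in positive and negative ionization mode. A Zorbax Extend-C18 column (2.1 × 50 mm, 1.8 μm) was used at 100 μL/min with water and acetonitrile, each including 0.1% formic acid.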
`CCN1CCC(N(Cc2ccc3c(c2)OCO3)C(=O)Nc2cc(C)ccc2OC)CC1` came in with an RP-LC retention time of 706 s. The compound `CN1C(=O)CSc2cnn(CC(=O)NC3CCCCC3)c(=O)c21` registered an RP-LC retention time of 646 s. In the case of `COc1cc(-c2nc3ccccn3c2Nc2ccc3c(c2)OCCO3)ccc1O`, the RP-LC retention time came to 629 s. `CNC(=O)c1noc([C@@H]2CC(F)(F)CN2Cc2ccc(C)o2)n1` gave an RP-LC retention time of 1070 s. The compound `CC(C)NC(=O)c1ccc(-c2nc3cc(NS(=O)(=O)Cc4ccccc4)ccc3n2C)cc1` came in with an RP-LC retention time of 667 s.

The compound `CC(C)Cc1nc(N2CCN(C(=O)c3ccc([N+](=O)[O-])cc3)CC2)c(C#N)c2c1COC(C)(C)C2` returned an RP-LC retention time of 1220 s. Compound `CN1CC(=O)N(CC(=O)NC2CCCCCCC2)c2ccccc2C1=O` returned an RP-LC retention time of 717 s. Consider `Cc1c2c(nn1-c1ccc(SCc3ccc(F)cc3)nn1)CCC2`, for which the RP-LC retention time worked out at 1280 s. On to `CN(CC(=O)N1CCN(c2cccc(Cl)c2)CC1)S(=O)(=O)c1c[nH]c(C(=O)N2CCCC2)c1`, for which the RP-LC retention time came to 834 s.

In the case of `COCCc1noc(C2Cc3ccccc3N2C(=O)Nc2cc(C)cc(C)c2)n1` (centres undefined), the RP-LC retention time was 968 s. As to `COc1cc(NC(=O)C2CCCN(c3cc(=O)n(C)c(=O)n3C)C2)cc(OC)c1` (centres undefined), the RP-LC retention time was 708 s. As for `CN(C)C(=O)c1cccc2c1CCN2C(=O)c1ccccc1`, the figure is 706 s; as for `COCCn1nc2n(c1=O)CCC1(CC2)CCN(C(=O)C2CCCCCC2)CC1`, 710 s; as for `CN1c2ccccc2C(=O)NC12CCN(C(=O)NCc1ccccc1)CC2`, 705 s.

`Cc1cc(N2CCC(NC(=O)Nc3cccc(F)c3)C2=O)ccc1F` (centres undefined) registered an RP-LC retention time of 882 s. For the compound `CCOc1ccccc1C1CC(=O)Nc2c(S(=O)(=O)c3ccccc3)csc21` (centres undefined), the RP-LC retention time was 1010 s.

Regarding `O=C(c1ccc(OC(F)(F)F)cc1)N1CCN(c2cc(-c3ccc(Cl)cc3)[nH]n2)CC1`, the RP-LC retention time worked out at 991 s.

`CN1C(=O)CCC2(CNC(=O)c3ccnn3C)CCC=C12` (centres undefined) gave an RP-LC retention time of 639 s. Compound `CC(=O)Nc1ccc(CC(=O)NC(C)C(=O)N2CCCc3ccccc32)cc1` (centres undefined) returned an RP-LC retention time of 685 s. `CCNc1cc(N2CCC(CCC(=O)N3CCCC3)CC2)ncn1`: the RP-LC retention time amounted to 608 s. In turn, `Cc1ccc2nc(-c3ccc(NC(=O)Cn4cnc(C)cc4=O)cc3)sc2c1` yielded an RP-LC retention time of 762 s. Under `Cn1nccc1C(=O)N1CCCC1c1nc(-c2ccc(F)cc2F)no1` (centres undefined) stands 794 s.

In the case of `O=C([C@@H]1C[C@H](F)CN1C(=O)Nc1ccccc1Cl)N1CCCCC1`, the RP-LC retention time came to 732 s. For the compound `CCC(C)NC(=O)N1c2cccnc2N(C(C)C)C(=O)C1C` (centres undefined), the RP-LC retention time was 850 s. Take `O=C(CNC(=O)C1CCCCC1)Nc1ccc(S(=O)(=O)Nc2ccccc2Cl)cc1`: the RP-LC retention time amounted to 792 s. Under `COc1cccc(C2CC(c3ccc(F)cc3)=NC3(CCN(C(C)=O)CC3)N2)c1O` (centres undefined) stands 656 s; under `COc1ccc(N2CC(c3noc(-c4cc(F)ccc4F)n3)CC2=O)cc1` (centres undefined), 849 s; under `CCC(C)n1c(=O)c2ccccc2n(Cc2nc(-c3cccc(Cl)c3)no2)c1=O` (centres undefined), 1270 s.

`CCc1noc(-c2cc(=O)n(CC(=O)NCc3ccccc3OC)c3ccccc23)n1` gave an RP-LC retention time of 900 s. Under `COc1ccc(NC(=O)N2CCC(n3cnc4cccnc43)CC2)cc1OC` stands 581 s. On to `Cc1nc(S(=O)(=O)N2CCc3c(c(-c4nnc(-c5ccc(F)cc5)o4)nn3C)C2)cn1C`, for which the RP-LC retention time was determined as 703 s. `CCN1C(=O)COc2ccc(-c3noc(COc4ccc(OC)cc4)n3)cc21` yielded an RP-LC retention time of 1000 s. In the case of `Cc1noc(C)c1S(=O)(=O)N1CCCC(c2nnnn2-c2ccccc2)C1` (centres undefined), the RP-LC retention time was determined as 903 s.

`CCC(CC)C(=O)N1CCCC(c2nc(CNC(=O)C3CCC3)cs2)C1` (centres undefined) displayed an RP-LC retention time of 777 s. As for `Cn1c(=O)c(N2CCN(C(=O)c3cccc(F)c3)CC2)nc2ccccc21`, the figure is 864 s. The compound `Cc1ccnn1-c1ccc(SCC(=O)Nc2ccccc2F)nn1` yielded an RP-LC retention time of 869 s. The compound `CCCC(=O)Nc1ccc(-c2cn3ccc(C)nc3n2)cc1` gave an RP-LC retention time of 587 s. Under `CC1Oc2ccccc2OC1C(=O)Nc1sc2c(c1C#N)CCCC2` (centres undefined) stands 1120 s.

For the compound `Cc1ccsc1CCNC(=O)C1CCN(S(=O)(=O)c2c(C)nn(-c3ccccc3)c2C)CC1`, the RP-LC retention time stood at 955 s. As for `CCOC(=O)C(C)NC(=O)N1CCCN(C2=NS(=O)(=O)C(c3ccccc3)=C2C)CC1` (centres undefined), the figure is 761 s; as for `Cc1ccc(Nc2c(-c3cccc(Cl)c3)nc3cccc(C)n23)cc1`, 836 s; as for `COc1ccc(Cl)cc1S(=O)(=O)N1CCCC(C(N)=O)C1` (centres undefined), 689 s. The compound `CCCN1CCN(c2cc(C(=O)O)c3cc(NS(=O)(=O)c4ccc(OCC)cc4)ccc3n2)CC1` came in with an RP-LC retention time of 624 s. For the compound `COc1ccc(NC(=O)CCc2cccc3[nH]ccc23)c(OC)c1`, the RP-LC retention time was 831 s. As for `CCSc1nnc(-c2nn(C)c3c2CN(S(=O)(=O)c2ccc(F)c(C)c2)CC3)n1CC`, the RP-LC retention time was 978 s. Compound `CCCn1cnc2cc(CNC(=O)c3ccc(Cl)c(Cl)c3)ccc21` came in with an RP-LC retention time of 683 s. `Cc1cc(N2CCN(c3ccccn3)CC2)n2nc(C)c(-c3ccc(F)cc3)c2n1` displayed an RP-LC retention time of 664 s.

Compound `O=C(CSc1nnc(CCc2nc3ccccc3[nH]2)o1)Nc1nccs1` had an RP-LC retention time of 556 s. `CCCNC(=O)CCNc1c(-c2cccc(F)c2)nc2cnccn12` yielded an RP-LC retention time of 650 s. Regarding `O=C(CSc1cc(-c2nc(-c3ccccc3)no2)ccn1)N1CCCC1`, the RP-LC retention time came out at 941 s. For the compound `CCCN1CCn2cc(S(=O)(=O)Nc3cccc(C)c3C)cc2C1=O`, the RP-LC retention time amounted to 758 s. The compound `COc1cc2c(cc1OC)C(Nc1nc(-c3ccccc3)cs1)=NC(C)(C)C2` registered an RP-LC retention time of 878 s.

On to `O=C(Nc1cccc(Cl)c1)c1c(O)c2cccnc2n(-c2ccccc2)c1=O`, for which the RP-LC retention time amounted to 1340 s. As for `CCOC(=O)COc1ccccc1C1CC(c2ccc(Br)cc2)=NN1C(C)=O` (centres undefined), the RP-LC retention time is 1050 s. As for `CC1CCCCN1S(=O)(=O)c1cc(-c2nnc(C3CC3)o2)co1` (centres undefined), the figure is 896 s; as for `CCN(CC)c1ncc2c(n1)CCC(C(=O)NCc1cccc(OC)c1)C2` (centres undefined), 695 s. `Cc1ccc(NC(=O)Cn2c(=O)cc(-c3nc(C4CC4)no3)c3ccccc32)cc1F` had an RP-LC retention time of 1020 s. Compound `Cc1c(C(=O)NCC(C)C)cnn1-c1ccc(-c2nc(C(C)(C)C)no2)cn1` displayed an RP-LC retention time of 1110 s. As for `Cc1cnc(C(=O)N2CCC(c3noc(-c4ccccn4)n3)C2)cn1` (centres undefined), the figure is 628 s.
